Tests used:
[1] = biological target: T1, HIV protease (Human immunodeficiency virus type 1 group M subtype B, UniProt P04585); assay: biochemical; format: biochemical; details: Table 21; above-described enzyme assay
T1 construct: HIV protease is diluted in the assay buffer to a final enzyme concentration of 12.3 nanomolar, based on a molecular weight of 10,780
Procedure: The enzyme method is described below. […] The positive control is MVT-101 (Miller, M. et al, Science, 246, 1149 (1989)]. The assay conditions are as follows:
20 mM sodium phosphate, pH 6.4
The above described substrate is dissolved in DMSO, then diluted 10 fold in assay buffer. Final substrate concentration in the assay is 80 μM.
The final concentration of DMSO is 14% and the final concentration of glycerol is 18%. The test compound is dissolved in DMSO and diluted in DMSO to 10× the test concentration; 10 μl of the enzyme preparation is added, the materials mixed and then the mixture is incubated at ambient temperature for 15 minutes. The enzyme reaction is initiated by the addition of 40μl of substrate. The increase in fluorescence is monitored at 4 time points (0, 8, 16 and 24 minutes) at ambient temperature. Each assay is carried out in duplicate wells.

[2] = system: HIV-1 in CEM cells; assay: HIV inhibition assay of acutely infected CEM cells (tetrazolium/MTT colorimetric), antiviral efficacy; format: cell-based; details: Human immunodeficiency virus 1, CCRF-CEM, 168 h
Source text: (§1) Methods, 20, 309-321 (1988).
(§2) [table 42: the next 8 blocks are its lines as printed, fixed-width]

[3] = in vitro; details: human
Source text: as §1, §2

**Q.** What does the source list for `CCCN(C[C@@H](O)[C@H](Cc1ccccc1)NC(=O)[C@H](CC(N)=O)NC(=O)OCc1ccccc1)S(=O)(=O)c1ccccc1` [Example 7]?
**A.** IC50 [1]: 3 nM; EC50 [2]: 25 nM; CC50 at 168 h ([3]; cem cells): 39 nM

**Q.** Which EC50 [2] does the source give for `O=C(N[C@@H](Cc1ccccc1)[C@H](O)CN(C1CCCCC1)S(=O)(=O)c1ccccc1)OCc1ccccc1` [Example 5] here?
**A.** 88 nM

**Q.** And the CC50 at 168 h [3]?
**A.** 11 nM

**Q.** What does the source list for `COCCCN(C[C@@H](O)[C@H](Cc1ccccc1)NC(=O)OCc1ccccc1)S(=O)(=O)c1ccccc1` [Example 9]?
**A.** EC50 [2]: 398 nM; CC50 at 168 h [3]: 15 nM

**Q.** With `COc1ccc(S(=O)(=O)N(CC(C)C)C[C@@H](O)[C@H](Cc2ccccc2)NC(=O)OCc2cccnc2)cc1` [Example 17] as the molecule, how does the EC50 [2] read?
**A.** 5 nM

**Q.** What about the CC50 at 168 h [3] of the same molecule?
**A.** 59000 nM

**Q.** Which EC50 [2] does the source give for `CC(C)CCN(C[C@@H](O)[C@H](Cc1ccccc1)NC(=O)[C@H](CC(N)=O)NC(=O)c1ccc2ccccc2n1)S(C)(=O)=O` [Example 4] here?
**A.** 64 nM

**Q.** What about the CC50 at 168 h [3] of the same molecule?
**A.** 28 nM

**Q.** What does the source list for `CC(C)CCN(C[C@@H](O)[C@H](Cc1ccccc1)NC(=O)OCc1ccccc1)S(=O)(=O)c1ccccc1` [Example 1]?
**A.** EC50 [2]: 55 nM; CC50 at 168 h [3]: 27 nM

**Q.** What does the source list for `COc1ccc(S(=O)(=O)N(CC(C)C)C[C@@H](O)[C@H](Cc2ccccc2)NC(=O)c2c(C)cccc2C)cc1` [Example 32]?
**A.** EC50 [2]: 98 nM; CC50 at 168 h [3]: 17000 nM

**Q.** Which EC50 [2] does the source give for `CC(C)CCN(C[C@@H](O)[C@H](Cc1ccccc1)NC(=O)[C@H](Cc1cnc[nH]1)NC(=O)c1ccc2ccccc2n1)S(=O)(=O)c1ccccc1` [Example 12] here?
**A.** 12 nM

**Q.** What about the CC50 at 168 h [3] of the same molecule?
**A.** 7.5 nM

**Q.** For `CSCCCN(C[C@@H](O)[C@H](Cc1ccccc1)NC(=O)OCc1ccccc1)S(=O)(=O)c1ccccc1` [Example 10], which EC50 [2] is on record?
**A.** 700 nM

**Q.** What about the CC50 at 168 h [3] of the same molecule?
**A.** 12 nM

— patent publication US6046190A, “Hydroxyethylamino sulphonamides useful as retroviral protease inhibitors” (G.D. Searle & Co., priority 1996, dated 2000)
